Source: patent publication US20090117089A1, “GLYCOLIPIDS AND ANALOGUES THEREOF AS ANTIGENS FOR NK T CELLS” (The Rockefeller University, priority 2005, published 2009)
Entries after “also recorded” stand apart in the source; their conditions may differ.

What was measured:
[1] = test system: serum IFN-γ, IL-12p70 and other cytokines; assay: Serum cytokines (Luminex); type: in vivo, mouse; conditions: for serum IFNγ: 15 hours; for serum IFN-γ, IL-12p70, IL-4, TNF-α and IL-2 response: 2, 6, 12 and 24 h; for serum IFN-γ and IL12p70 release in Jα281−/− mice: i.v. injection
Experimental: Serum cytokines. […] 25 μl of sample was preincubated with serum diluent and incubated for 2 h with Beadmates coated with anti-cytokine mAbs. The fluid was then aspirated and the wells incubated for 1.5 h with biotin-conjugated anti-cytokine mAbs followed by 30 min incubation with Beadlyte streptavidin-PE secondary antibody. Samples were acquired in duplicate by Luminex and analyzed using Beadview software (Upstate).

[2] = test system: human NKT cells (Vα24/Vβ11); assay: Human dendritic cell mediated NKT cell expansion; type: cell-based; conditions: DCs loaded with glycolipid; data not shown
[3] = test system: allogeneic C57B1/6 or syngeneic T cells; assay: Stimulation of the mixed leukocyte reaction (MLR) by DCs; type: cell-based, mouse
Experimental: Stimulation of the mixed leukocyte reaction (MLR) by DCs. Spleen DCs were isolated using anti-CD11c magnetic beads 8 h after administration of αGalCer, 24, or PBS. Graded numbers of spleen DCs from BALB/C mice were irradiated and cultured with 2×10^5 allogeneic C57B1/6 or syngeneic T cells, isolated using anti-CD4 coated magnetic beads (Miltenyi Biotech), in a 96-well flat-bottom plate for 88 h. During the final 16 h, ^3H-thymidine (1 μCi/well) was added.

[4] = test system: DCs from bone marrow progenitors; assay: Direct DC maturation from bone marrow progenitors in culture; type: cell-based; conditions: data not shown
J558 tumor cells = assay: Tumor protection assay, J558 plasmacytoma; type: in vivo, mouse; conditions: for protection from J558 tumor challenge / tumor growth after single agent alone: challenge 14 days later; for tumor growth after single agent alone: glycolipid alone (2 or 0.2 μg/mouse) or irradiated cells alone; for protective immunity to irradiated tumor injected i.v. (adjuvant comparison): vs αCD40 and poly IC
Experimental: 2×10^7 irradiated J558-Ld^− cells, were injected i.v. or s.c. into Balb/c mice with or without α-Gal Cer as a DC maturation stimulus. In some experiments we compared α-Gal Cer to agonistic anti-CD40 mAb (1C10, 25 μg i.p.) or the toll like receptor ligands, poly IC ([…], Invivogen) or lipopolysaccharide (20 μgm, Sigma). The mice had been given CFSE-labeled PICTL CD8^+ T cells i.v. 1 d earlier, or were naive animals. In some experiments, mice were sacrificed 3 d later, and T cell division and activation in spleen were analyzed by flow cytometry. Additionally, 7 d or 2 months later, 5×10^6 live J558 tumor cells were inoculated subcutaneously. 5×10^6 Meth A fibrosarcoma was used as a control tumor for challenge. Tumor cell growth was measured with calipers every other day. Mice were scored positive for tumor as soon as tumors became palpable and grew progressively. Mice were euthanized when tumor size exceeded 400 mm^2.
Mice vaccinated with J558 and α-Gal Cer were injected with ascites containing 1 mg of rat monoclonal anti-CD4 (clone GK 1.5) or anti-CD8 (clone 53-6.72). The mice received three daily injections, the first one i.v. one day before the challenge, and two i.p. injections on the day of the challenge and one day after the challenge. Control mice received 1 mg of Rat IgG (Jackson Laboratories). The depletion was monitored by staining with anti-CD4 and anti-CD8 antibodies followed by flow cytometry (BD PharMingen).
In vivo delivery of dying tumor cells, DC maturation stimuli, and tumor protection assay. Different doses of irradiated J558-Ld− cells were injected i.v. into naïve BALB/c mice either alone or with αGalCer (2 or 0.2 μg/mouse) or 24 (2 or 0.2 μg/mouse) as a DC maturation stimulus. We also compared the glycolipids to agonistic anti-CD40 mAb (1C10, 25 μg, i.p.) or the Toll-like receptor ligands, poly IC (50 μg i.p., Invivogen). 14 d later, 5×10^6 live J558 tumor cells were inoculated s.c. Tumor cell growth was measured with calipers every other day. Mice were scored positive for tumor, as soon as tumors became palpable and grew progressively. Mice were euthanized when tumor size exceeded 400 mm^2.

[5] = test system: human NKT cells (Vα24/Vβ11); assay: Human dendritic cell mediated NKT cell expansion; type: cell-based; set-up: NKT cell expansion (Table 1): unit not given here; conditions: for NKT cell expansion by loaded human DCs: DC to responder ratio 1:10
Text: Human dendritic cell mediated NKT cell expansion. CD14+ monocytes were isolated from PBMC using anti-CD14 magnetic microbeads and cultured in the presence of GM-CSF and IL-4 to generate DCs, followed at day 5-6, by maturation in an inflammatory cytokine cocktail as described herein. To stimulate NKT cells, DCs were pulsed with α-GalCer and the tested analogs, and cultured with CD14− cells at a DC: responder ratio of 1:10. NKT cell expansion was monitored by flow cytometry based on the expression of the invariant NKT cell receptor (Vα24/Vβ11).

[6] = test system: CD1d reactive T cell hybridomas with an invariant Vα14i T cell antigen receptor; assay: 1.2 hybridoma assay (IL-2 release by ELISA); type: cell-based, mouse
Experimental: As a measure of T cell activation, IL-2 release into the tissue culture medium was measured after 16 hours culture by an ELISA assay.
As a measure of T cell activation, IL-2 and IFN-γ release into the tissue culture medium was measured after 16 hours culture by an ELISA assay.

[7] = 0.2 μg/mouse with 1×10^7 irradiated J558Ld− tumor cells i.v.
[8] = 2 μg/mouse with 1×10^7 irradiated J558Ld− tumor cells i.v.

Row | Compound | serum IL-12p70 ([1]; 0.02 μg, 15 h) | serum IFNγ ([1]; 0.02 μg) | serum IFN-γ, IL-12p70, IL-4, TNF-α and IL-2 response ([1]; 2 μg i.v.) | serum IL-12p70 ([1]; 2 μg i.v., by 6 h) | serum IFN-γ ([1]; 2 μg i.v., by 12 h) | serum IL-12p70 ([1]; 2 μg i.v., by 12 h) | serum IFN-γ and IL12p70 release in Jα281−/− mice [1] | production of IFNγ, IL-13 and IL-2 by NKT cells [2] | stimulation of allogeneic T cells (allo-MLR) by DCs from treated mice [3] | stimulation of syngeneic T cells (syn-MLR) by DCs from treated mice [3] | direct stimulation of DC maturation [4] | protection from J558 tumor challenge (J558 tumor cells; [7]) | protection from J558 tumor challenge (J558 tumor cells; [8]) | tumor growth after single agent alone (J558 tumor cells) | protective immunity to irradiated tumor injected i.v. (adjuvant comparison) (J558 tumor cells) | NKT cell expansion by loaded human DCs [5] | NKT cell expansion (Table 1) ([5]; Donor 1) | NKT cell expansion (Table 1) ([5]; Donor 2) | NKT cell expansion (Table 1) ([5]; Donor 3) | NKT cell expansion (Table 1) ([5]; Donor 4) | further results
1 | CCCCCCCCCCCCCCCCCCCCCCCCCC(=O)N[C@@H](CO[C@H]1O[C@H](CO)[C@H](O)[C@H](O)[C@H]1O)[C@H](O)[C@H](O)CCCCCCCCCCCCCC [α-GalCer, 2S,3S,4R-1-O(α-galactopyranosyl)-2(N-hexacosanoylamino)-1,3,4-octadecanetriol] | ~50 pg/mL | ~100 pg/mL | induced rapid increases in serum IFN-γ, IL-12p70, IL-4, TNF-α and IL-2 concentrations | ~600 pg/mL | ~1200 pg/mL | ~200 pg/mL | lacked the ability to release IFN-γ and IL12p70 into the serum | induced rapid production of IFNγ, IL-13 and IL-2 | equally potent stimulators of the allo-MLR | no stimulatory activity in the syn-MLR | unable to directly stimulate DC maturation from bone marrow progenitors in culture | 100% | 100% | grew progressively within 7-10 days | only adjuvant that could independently induce protective immunity | efficient inducers of NKT cell expansion in culture | 3.55 | 2.65 | 1.53 | 3.55 | serum IFN-γ ([1]; 2 μg i.v., by 6 h): 6000 pg/mL; mice fully protected after transfer of CD11c+ DCs (J558 tumor cells; 1.5×10^6 DCs from donors given dying J558− with α-Gal Cer, 10 of 17 mice): 58%; tumor immunity after depletion of CD4+ or CD8+ T cells (J558 tumor cells; 8 weeks after vaccination with J558 and α-Gal Cer): significantly abrogated tumor immunity; dependence of vaccination on route (J558 tumor cells; J558 and α-Gal Cer, i.v. vs s.c.): effective only when tumor cells were injected by the i.v. and not the s.c. route; specificity of protection (J558 vs Meth A challenge) (J558 tumor cells; dying J558− and α-Gal Cer): protected mice against a challenge of J558 but not Meth A cells; protection against MHC class I positive or negative J558 challenge (J558 tumor cells; dying MHC class I− J558 cells and α-Gal Cer): protected against the MHC class I^+ J558 cells but not to MHC class F J558 tumor cells; tumor immunity in Jα281−/− mice (lack NKT cells) (J558 tumor cells; dying cells plus glycolipid): failed to develop immunity; duration of tumor immunity (J558 tumor cells; single vaccination with irradiated J558 and α-Gal Cer, challenge 2 and 4 months later): long-lived tumor immunity; therapeutic effect (J558 tumor cells; vaccinated 3 days after injection of live tumor cells): therapeutic response manifest when the tumor dose was 1×10^6 but not 5×10^6 cells; mice protected and tumor-free after J558 challenge (J558 tumor cells; vaccination with irradiated J558− cells combined with α-Gal Cer i.v., 22 of 25 mice): 88%; protective immunity compared with anti-CD40, LPS and poly IC (J558 tumor cells; with irradiated J558− cells): more efficient at inducing protective immunity than the other compounds tested; tumor growth after glycolipid alone (J558 tumor cells; α-Gal Cer alone i.v., challenge 5×10^6 live J558 s.c.): grew progressively within 7-10 days; IL-2 release from the hybridomas ([6]; 1 μg/ml, CD1d transfected A20 cells): greatest amount of IL-2 release; IL-2 secretion ([6]; CD1d coated plates, Sphingomonas glycolipids and analogues): greater IL-2 secretion
2 | 3-O-sulfo-alpha-galactosylceramide [Compound 24] | ~900 pg/mL | ~1200 pg/mL | significantly higher at all time points examined | ~1000 pg/mL | ~3000 pg/mL | ~900 pg/mL | lacked the ability to release IFN-γ and IL12p70 into the serum | induced rapid production of IFNγ, IL-13 and IL-2 | equally potent stimulators of the allo-MLR | no stimulatory activity in the syn-MLR | unable to directly stimulate DC maturation from bone marrow progenitors in culture | 100% | 100% | grew progressively within 7-10 days | only adjuvant that could independently induce protective immunity | efficiently expanded human NKT cells; also recorded: comparable or higher than expansion mediated by DCs loaded with αGalCer | 3.19 | 5.95 | 1.51 | 4.95 | serum IFN-γ and IL-12p70, 24 vs. αGalCer ([1]; all doses tested, 15 hours after i.v. injection): at least 2.5 fold; mice protected by direct vaccination (J558 tumor cells; dying tumor cells with compound 24): 80-100%; maturation stimulus compared with ligation of CD40, TLR4 and TLR3 (J558 tumor cells; irradiated tumor cells i.v.): superior relative to other DC stimuli; biological activity in the 1.2 hybridoma assay (IL-2 secretion) [6]: moderately active
